Source: the NIST ThermoML archive (doi:10.1021/je101035p)
± gives the expanded uncertainty stated by the source.

Experiments:
[1] = refractive index (Na D-line) (dimensionless); conditions: 101.33 kPa, Liquid, Standard Abbe refractometry
[2] = Liquid; for Normal boiling temperature: Distillation

CCO [ethanol]
refractive index ([1]; 293.2 K): 1.36115 ± 0.0007 | Normal boiling temperature [2]: 78.29 ± 1.1 °C

C=CC(C)(CCC=C(C)C)OC(C)=O (stereo not given) [linalool acetate]
refractive index ([1]; 294 K): 1.45445 ± 0.0012 | mass density ([2]; 293.2 K, 101.33 kPa, Vibrating tube method): 895.06 ± 4.4 kg/m3 | Normal boiling temperature [2]: 220.00 ± 1.2 °C
